Results: US10919941B2, “Functional lipid constructs” (KODE BIOTECH LIMITED, priority 2007, dated 2021)
No end group written: not given here. *: point of attachment. For = O=C*

Key:
[1] = 25° C.; cited from earlier work
[2] = system: Miltenberger antibody positive sera; assay: BioVue AHG card column agglutination serology of modified red blood cells; assay type: cell-based, human; design: key: 0 or ‘−’ no agglutination; 0 or ‘−’ no agglutination; 1+ or 3=very weak agglutination; 1+ or 3=very weak agglutination; 2+ or 5=weak agglutination; 2+ or 5=weak agglutination; 3+ or 8=moderate strong agglutination; 3+ or 8=moderate strong agglutination; 4+ or 10/12=strong agglutination; 4+ or 10/12=strong agglutination; 4+ or 10/12=strong agglutination; conditions: construct 50 μg/ml
[3] = system: Miltenberger Antibody Positive Panel; assay: Reactivity of modified RBCs against the Miltenberger Antibody Positive Panel; assay type: cell-based, human; design: key to score vs panel 15 TAP2 / score vs panel 4 T7202 / score vs panel 8 T5896 / score vs panel 2 T217 / score vs panel 3 T165 / score vs panel 14 TAP1 / score vs panel 10 Mia / score vs panel 11 Mur / score vs panel 12 Gam / score vs panel 6 T6025 / score vs panel 7 T8445 / score vs panel 9 MIII / score vs panel 13 BoxH / reactivity with Panel Serum #7 (T8445) / agglutination score, Panel Serum #7 (T8445): 0 or ‘−’ no agglutination; 0 or ‘−’ no agglutination; 1+ or 3=very weak agglutination; 1+ or 3=very weak agglutination; 2+ or 5=weak agglutination; 2+ or 5=weak agglutination; 3+ or 8=moderate strong agglutination; 3+ or 8=moderate strong agglutination; 4+ or 10/12=strong agglutination; 4+ or 10/12=strong agglutination; 4+ or 10/12=strong agglutination; conditions: for sensitivity and specificity towards a human polyclonal antibody panel compared with sequence 1: MUT peptides, prior art sequence 1; for score vs panel 2 T217 / score vs panel 3 T165 / score vs panel 4 T7202 / score vs panel 8 T5896 / score vs panel 14 TAP1 / score vs panel 15 TAP2: Table 8, construct 50 μg/ml
antibody negative serums = assay: False positive reactions of modified RBCs with antibody negative serums/plasma; assay type: cell-based, human; design: key to Reaction score BioVue AHG, PAC samples 1-46, 49, 50, 52, 53 / Reaction score BioVue AHG, PAC sample 47 / Reaction score BioVue AHG, PAC sample 48 / Reaction score BioVue AHG, PAC sample 51 / agglutination score, T series serum 2 / agglutination score, T series serum 42 / agglutination score, T series serum 63 / agglutination score, T series serum 62 / agglutination score, T series serum 7 / agglutination score, T series serum 20 / agglutination score, T series serum 48 / agglutination score, T series serum 22 / agglutination score, T series serum 39 / agglutination score, T series serum 23 / agglutination score, T series serum 30 / agglutination score, T series serum 4 / agglutination score, T series serum 31 / agglutination score, T series serum 44 / agglutination score, T series serum 61 / agglutination score, T series serum 18 / agglutination score, T series serum 21 / agglutination score, T series serum 28 / agglutination score, T series serum 55 / agglutination score, false positive serum T18 / agglutination score, false positive serum T21 / agglutination score, false positive serum T28 / agglutination score, false positive serum T55 / agglutination score, false positive serum T78 / agglutination score, false positive serum T92: 0 or ‘−’ no agglutination; 0 or ‘−’ no agglutination; 1+ or 3=very weak agglutination; 1+ or 3=very weak agglutination; 2+ or 5=weak agglutination; 2+ or 5=weak agglutination; 3+ or 8=moderate strong agglutination; 3+ or 8=moderate strong agglutination; 4+ or 10/12=strong agglutination; 4+ or 10/12=strong agglutination; 4+ or 10/12=strong agglutination; conditions: for Reaction score BioVue AHG, PAC sample 47 / Reaction score BioVue AHG, PAC sample 48 / Reaction score BioVue AHG, PAC sample 51 / Reaction score BioVue AHG, PAC samples 1-46, 49, 50, 52, 53: blood donor plasma, construct 50 μg/ml (2 hours, 37° C.); for % False Positives: panel of blood donor plasma samples (PAC), BioVue AHG, construct 50 μg/ml
[4] = system: TAP1 serum (Taiwan Miltenberger antibody positive sample); assay: Anti-MUT serum (TAP1) reactivity of modified RBCs (saline and AHG); assay type: cell-based, human; design: key: 0 or ‘−’ no agglutination; 0 or ‘−’ no agglutination; 1+ or 3=very weak agglutination; 1+ or 3=very weak agglutination; 2+ or 5=weak agglutination; 2+ or 5=weak agglutination; 3+ or 8=moderate strong agglutination; 3+ or 8=moderate strong agglutination; 4+ or 10/12=strong agglutination; 4+ or 10/12=strong agglutination; 4+ or 10/12=strong agglutination; conditions: construct 50 μg/ml (2 hours, 37° C.)
Description: The suspensions are either: • 1. incubated for 2 hours at 37° C. before being washed and suspended in a cell medium for serological analysis at a concentration of 0.8 to 3% (Method 1); or • 2. incubated for 3 to 4 hours at room temperature (circa 25° C.) followed by 18 hours at 4° C. before being washed and suspended in a cell medium for serological analysis at a concentration of 0.8 to 3% (Method 2).
Serological reactions are graded or scored by either of two established systems (0 or ‘−’ no agglutination, 1+ or 3=very weak agglutination, 2+ or 5=weak agglutination, 3+ or 8=moderate strong agglutination, 4+ or 10/12=strong agglutination)

[5] = system: Miltenberger antibody positive samples and false positive antibody negative samples; assay: Reactivity of RBCs modified with capped peptide-lipid constructs in alternative configurations; assay type: cell-based; design: key: 0 or ‘−’ no agglutination; 0 or ‘−’ no agglutination; 1+ or 3=very weak agglutination; 1+ or 3=very weak agglutination; 2+ or 5=weak agglutination; 2+ or 5=weak agglutination; 3+ or 8=moderate strong agglutination; 3+ or 8=moderate strong agglutination; 4+ or 10/12=strong agglutination; 4+ or 10/12=strong agglutination; 4+ or 10/12=strong agglutination; conditions: capped construct 50 μg/mL, 2 hours at 37° C.
Description: Peptide-lipid constructs comprising CMG(2) and the following peptides were prepared:
The termini of the peptides were formylated and amidated to provide “capped” peptides. The reactivity of random Miltenberger antibody positive samples and three false positive antibody negative samples were tested against RBCs modified to incorporate these “capped” peptide-lipid constructs (50 μg/mL, 2 hours at 37° C.).
The reactivity was assessed and recorded in Table 24. […] However, linkage of the peptide via a Cys residue located at the amino terminus (as opposed to the carboxy terminus) appeared to reduce the likelihood of reactivity with the false-positive antibody negative samples and improve reactivity with the known antibody positive samples.

[6] = molecular target: Miltenberger antigen MiIII on natural human red cells (human) (UniProt P02724); assay: BioVue AHG; cell 11297161
[7] = molecular target: Miltenberger antigen MiIII on natural human red cells (human) (UniProt P02724); assay: saline phase; cell R2R2 11297161
[8] = molecular target: Miltenberger antigen Vw on natural human red cells (human) (UniProt P02724); assay: BioVue AHG; cell 9422184
[9] = molecular target: Miltenberger antigen MiIII on natural human red cells (human) (UniProt P02724); assay: AHG; cell R2R2 11297161
[10] = molecular target: Miltenberger antigen MiIII on natural human red cells (human) (UniProt P02724); assay: AHG; cell R1Rz 11291347
[11] = molecular target: Miltenberger antigen Mi?X on natural human red cells (human); assay: BioVue AHG; cell C.BR
[12] = molecular target: Miltenberger antigen MiIII on natural human red cells (human) (UniProt P02724); assay: AHG; cell Abtectcell III 8245009
[13] = molecular target: Miltenberger antigen MiIII on natural human red cells (human) (UniProt P02724); assay: saline phase; cell R1Rz 11291347

Row | Molecule | BioVue score vs TAP1 [2] | BioVue score vs positive sample 2 T217 (T) [2] | BioVue score vs positive sample 3 T165 (Mur) [2] | BioVue score vs positive sample 4 T7202 (M) [2] | BioVue score vs positive sample 8 T5896 (M + K + Mur) [2] | sensitivity and specificity towards a human polyclonal antibody panel compared with sequence 1 [3] | score vs panel 2 T217 [3] | score vs panel 3 T165 [3] | score vs panel 4 T7202 [3] | score vs panel 8 T5896 [3] | score vs panel 14 TAP1 [3] | score vs panel 15 TAP2 [3] | Reaction score BioVue AHG, PAC sample 47 (antibody negative serums) | Reaction score BioVue AHG, PAC sample 48 (antibody negative serums) | Reaction score BioVue AHG, PAC sample 51 (antibody negative serums) | Reaction score BioVue AHG, PAC samples 1-46, 49, 50, 52, 53 (antibody negative serums) | % False Positives (antibody negative serums) [%] | Reactivity with anti-MUT serum TAP1 [4] | agglutination score, antibody positive serum 55 [5] | agglutination score, antibody positive serum 61 [5] | also measured
1 | O=C(O)CCCC[C@@H]1SC[C@@H]2NC(=O)N[C@@H]21 [Biotin, [3aS-(3aα, 4β, 6aα)]-hexahydro-2-oxo-1H-thieno[3,4-d]imidazole-4-pentanoic acid] | – | – | – | – | – | – | – | – | – | – | – | – | – | – | – | – | – | – | – | – | solubility in 95% alcohol [1]: approximately 80 mg/100 mL; solubility in water [1]: approximately 22 mg/100 mL
2 | M36: DOPE peptide-lipid construct: MUTK peptide SQTNDKHKRDT, leader c, spacer CMG(2) (SQTNDKHKRDTC; also: DOPE peptide-lipid construct via leader Cys, spacer CMG(2)) | 8 | 0 | 0 | 0 | 0 | superior sensitivity and specificity | 0 | 0 | 0 | 0 | 8 | 0 | 3 | 5 | 0 | 0 | 3.8 | 8 | – | – | –
3 | M37: DOPE peptide-lipid construct: MUTK peptide TNDKHKRDTYP, leader c, spacer CMG(2) (TNDKHKRDTYPC; also: DOPE peptide-lipid construct via leader Cys, spacer CMG(2)) | 8 | 5 | 0 | 8 | 0 | superior sensitivity and specificity | 5 | 0 | 8 | 0 | 8 | 0 | 0 | 0 | 0 | 0 | 0 | 8 | – | – | –
4 | M44: capped peptide-lipid construct comprising CMG(2) and ThrTyrProAlaHisThrAlaAsnGluCys (For-TYPAHTANEC-NH2; also: capped peptide-lipid construct comprising CMG(2)) | – | – | – | – | – | – | – | – | – | – | – | – | – | – | – | – | – | – | 8 | 8 | agglutination score, antibody positive serum 65 [5]: 10; agglutination score, antibody positive serum 67 [5]: 8; agglutination score, antibody positive serum 68 [5]: 0; agglutination score, antibody positive serum 71 [5]: 10; agglutination score, antibody positive serum 942-433813-3 [5]: 0; agglutination score, false-positive antibody negative serum PAC302 [5]: 5; agglutination score, false-positive antibody negative serum PAC332 [5]: 12; agglutination score, false-positive antibody negative serum PAC340 [5]: 5
5 | M45: capped peptide-lipid construct comprising CMG(2) and CysThrTyrProAlaHisThrAlaAsnGlu (For-CTYPAHTANE-NH2; also: capped peptide-lipid construct comprising CMG(2)) | – | – | – | – | – | – | – | – | – | – | – | – | – | – | – | – | – | – | 8 | 5 | agglutination score, antibody positive serum 65 [5]: 8; agglutination score, antibody positive serum 67 [5]: 10; agglutination score, antibody positive serum 68 [5]: 0; agglutination score, antibody positive serum 71 [5]: 10; agglutination score, antibody positive serum 942-433813-3 [5]: 5; agglutination score, false-positive antibody negative serum PAC302 [5]: 0; agglutination score, false-positive antibody negative serum PAC332 [5]: 0; agglutination score, false-positive antibody negative serum PAC340 [5]: 0
6 | TAP1 | – | – | – | – | – | – | – | – | – | – | – | – | – | – | – | – | – | – | – | – | agglutination score [6]: 10; agglutination score [7]: 8; agglutination score [8]: 5; agglutination score [9]: 10; agglutination score [10]: 10; agglutination score [11]: 12; agglutination score [12]: 10; agglutination score [13]: 8
